As a reminder, the IC50 is the concentration at which inhibition is half-maximal.

The structures appear in SMILES notation.

Series [1] deals with E-cadherin, N-cadherin, vimentin, Snail, MMP2, MMP7, MMP9 in EC9706 cells. As to the kind of experiment: Western blot, EMT-related marker proteins and MMPs. The class given is cell-based, human. As for the experimental part: (§1) Oesophageal cancer cells were inoculated into a 6-well plate (5×10^5 cells/well). Cells were treated with different concentrations of CAR and then incubated for an additional 48 h. The cells were lysed using radio-immunoprecipitation assay (RIPA) buffer. The protein concentration was determined using a BCA kit. Proteins were separated by 8-12% sodium dodecyl sulfate-polyacrylamide gel electrophoresis (SDS-PAGE) and then transferred to a polyvinylidene fluoride (PVDF) membrane. The membrane was blocked with 5% nonfat milk for 1 h and then incubated with primary antibodies at 4 °C overnight. The membrane was then incubated with secondary antibodies for 1 h at room temperature. Finally, the membrane was imaged using a chemiluminescence imaging analyser. The greyscale value of each target protein band was analysed using the software provided with the analyser.
Background: A western blot detects proteins with antibodies after separation by electrophoresis.

Series [2] deals with EC9706 and TE10 cells. As to the kind of experiment: Transwell Matrigel invasion assay. The class given is cell-based, human. As to conditions: 48 h. As for the experimental part:
(§2) A total of 100 μL of Matrigel was placed in the upper chamber of a Transwell system and incubated at 37 °C for 2 h to form a white membrane visible to the naked eye. Cells were resuspended in serum-free medium and adjusted to a concentration of 3×10^4 cells/well. Medium containing 10% FBS was added into the lower chamber, and CAR was added based on a concentration gradient. Next, the cells were incubated for 48 h and then stained with crystal violet for 10 min. Then, an inverted microscope was used to observe the cells; five fields were randomly selected to observe and count the cells. To assess cell migration, all the above steps were repeated, but Matrigel was not added to the upper chamber.

Series [3] relates to Bad, Bax, Bcl-2, PARP, caspase-3 in EC9706 cells. As to the kind of experiment: Western blot, apoptosis-related proteins. The settings on record: 48 h. The series is classed as cell-based, human. As for the experimental part:
as §1

Series [4] is described as follows: HE staining of important organs. As to conditions: treatment group vs control group. The series is classed as in vivo, nude mice. As for the experimental part:
(§3) A suspension of EC9706 cells (2×10^7 cells/ml) was injected into the middle of and posterior to the armpit of 4- to 6-week-old male nude mice. One week after inoculation, a soybean-sized subcutaneous mass appeared in the armpits of the mice. Then, different doses of CAR (5, 15, or 25 mg/kg) or sodium carboxymethyl cellulose (CMC), which served as a control, were administered by gavage once every three days. The body weights of the mice and tumour size were measured at the same time. Mice were euthanized 26 days after drug administration. Immunohistochemistry (IHC) was used to stain the tumours, and stomach tissue was stained with haematoxylin-eosin (HE).
Tumour tissues were fixed with 4% paraformaldehyde and embedded in paraffin. Paraffin-embedded tissue blocks were cut into slices with a thickness of […]. Tumour sections were immunohistochemically stained with PCNA (1:100), Bcl-2 (1:100), vimentin (1:100), phosphorylated Akt (1:100), and phosphorylated PI3K (1:100) antibodies according to the steps of the immunohistochemistry kit. For HE staining, tissues were sectioned after deparaffinization, stained with haematoxylin and eosin, and mounted on slides with neutral gum.

The subject of another series is EC9706 xenograft. As to the kind of experiment: EC9706 tumour xenograft model, tumour growth. The series is classed as in vivo, nude mice. The settings on record: 5, 15 or 25 mg/kg by gavage once every three days, compared with control group. As for the experimental part: as §3
The subject of series [5] is EC9706 and TE10 cells. As to the kind of experiment: Transwell migration assay. The class given is cell-based, human. As to conditions: 48 h, compared with control group. As for the experimental part: as §2
Series [6] relates to oesophageal cancer cell lines EC9706 and TE10. As to the kind of experiment: Crystal violet staining, cell proliferation. The series is classed as cell-based, human. As to conditions: 4, 6, 8, 10 µM; 24 h and 48 h; similar in MTT assay. As for the experimental part: Oesophageal cancer cells at a density of 3×10^4 cells/well were seeded in 24-well plates. Then, the cells were treated with different concentrations of prepared CAR or DMSO, and the NC group was set up. After incubation in an incubator for 24 h and 48 h, crystal violet staining solution was added to each well. After imaging under a scanner, the cells were fully dissolved in 20% acetic acid solution. To calculate cell viability, the optical density (OD) value of each well was measured at 590 nm using an enzyme-linked immunosorbent assay (ELISA) spectrophotometer.
Background: Tetrazolium dyes change colour on reduction, which living cells bring about.

The next series deals with PCNA in EC9706 cells. As to the kind of experiment: Western blot, proliferation marker. The series is classed as cell-based, human. The settings on record: 48 h. As for the experimental part: as §1
In series [7] the test system is normal gastric epithelial cells (GES-1). As to the kind of experiment: MTT assay, IC50 in normal cells. The class given is cell-based, human. As to conditions: GES-1, 24 h and 48 h. As for the experimental part: (§4) EC9706 and TE10 oesophageal cancer cells in the logarithmic growth phase were harvested and inoculated into 96-well plates at a density of 3000 cells/well. The cells were cultured in an incubator for 12 h and then treated with different concentrations of CAR and DMSO. The NC group was also set up. After incubation for 24 h or 48 h, 10 µL of MTT solution (5 mg/ml) was added to each well. The supernatant was aspirated, and 100 µL of DMSO was added to each well. The absorbance at a wavelength of 490 nm was measured using a microplate reader.
Supplementary Figure 1 (A -D) EC9706 and TE10 cells were treated with different concentrations of CAR or DMSO, and cell viability and the IC50 at 24 h and 48 h were examined by MTT assay. (E-H) HET-1A and GES-1 cells were treated with different […]
examined by MTT assay. (I-J) EC9706 cells were incubated with CAR or the caspase inhibitor Z-VAD- FMK or co-incubated, and mitochondrial apoptosis pathway- related proteins were detected by Western blot. […]
reverse the expression of Bcl2, Bax, Bad, caspase- 3, and cleaved caspase- 3. (K and L) The apoptosis of EC9706 cells after applying the caspase inhibitor Z-VAD- FMK was detected by […]
(1 picture or pasted object on this page, not shown here)

Another series deals with TE10 cells. As to the kind of experiment: MTT assay, cell viability and IC50. The class given is cell-based, human. As for the experimental part: as §4
Another series has as its system EC9706 cells. As to the kind of experiment: MTT assay, cell viability and IC50. The series is classed as cell-based, human. As for the experimental part:
as §4

As for `COc1cc(O)cc(O)c1C(=O)/C=C/c1ccccc1` [CAR, Cardamonin], the E-cadherin expression result in series [1] is “upregulated the expression of E-cadherin”. For the same compound, in [1], the “MMP2, MMP7 and MMP9 expression” value was “significantly reduced the expression of MMP2, MMP7, and MMP9”. The “N-cadherin, vimentin and Snail expression” value in series [1] is “significantly downregulated the expression of N-cadherin and vimentin as well as the EMT transcription factor Snail”. In the series on EC9706 and TE10 cells [2], the invasive ability entry is “significantly inhibited the invasive ability of oesophageal cancer cells”. Also, the “expression of anti-apoptosis-related proteins” value in series [3] was “downregulated the expression level of the anti-apoptosis-related proteins Bcl-2, PARP, and caspase-3”. For the same compound, the “expression of pro-apoptosis-related proteins” value in series [3] is “upregulated the expression levels of the pro-apoptosis-related proteins Bad, Bax, cleaved PARP, and cleaved caspase-3”. Further, the “HE staining of important organs” value in [4] was “no difference in HE staining was observed between the treatment group and the control group”. In addition, the tumour growth entry in the series on EC9706 xenograft is recorded as “significantly inhibited tumour growth”. Moreover, the cell migration entry in the series with EC9706 and TE10 cells [5] is recorded as “significantly inhibited oesophageal cancer cell migration”. For the same compound, the cell proliferation entry in series [6] was “inhibited oesophageal cancer cell proliferation in time- and concentration-dependent manners”. The PCNA expression entry with PCNA in EC9706 cells is reported as “significantly inhibited PCNA expression”. For the same compound, the “IC50 in normal cells compared with oesophageal cancer cells” value in series [7] is recorded as “higher IC50 values”. In addition, the IC50 in the series on TE10 cells (24 h) came to 12.5 µM; in the series with TE10 cells (48 h) it was 8.4 µM; in the series with EC9706 cells (24 h) it was 12.2 µM; with EC9706 cells (48 h) it was 8.67 µM.

(Values after paper PMC8120183, “Cardamonin inhibits the progression of oesophageal cancer by inhibiting the PI3K/AKT signalling pathway” (Journal of Cancer, 2021).)
